This note sets out measurements from ChEMBL document CHEMBL4418497, “Compositions and methods relating to inhibiting serine hyrdoxymethyltransferase 2 activity” (2016).

SMILES strings stand for the structures.

For one experiment, the target named is T1, Serine hydroxymethyltransferase, mitochondrial (Homo sapiens, UniProt P34897).
T1 sequence (P34897 whole entry): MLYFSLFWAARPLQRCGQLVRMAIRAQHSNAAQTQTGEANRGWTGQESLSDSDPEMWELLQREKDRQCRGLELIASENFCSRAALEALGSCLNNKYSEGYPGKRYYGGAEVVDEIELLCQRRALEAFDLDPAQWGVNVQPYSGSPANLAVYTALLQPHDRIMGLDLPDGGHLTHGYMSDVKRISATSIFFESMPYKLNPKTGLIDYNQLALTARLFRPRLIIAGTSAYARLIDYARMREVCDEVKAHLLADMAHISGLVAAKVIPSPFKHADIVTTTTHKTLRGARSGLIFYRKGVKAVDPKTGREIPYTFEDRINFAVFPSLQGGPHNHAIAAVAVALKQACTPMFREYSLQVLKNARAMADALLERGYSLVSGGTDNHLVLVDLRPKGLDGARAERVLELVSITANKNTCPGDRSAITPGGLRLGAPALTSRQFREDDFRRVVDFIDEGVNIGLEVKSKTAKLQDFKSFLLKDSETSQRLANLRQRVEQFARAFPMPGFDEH
Put plainly: Inhibition of His-tagged human recombinant SHMT2 expressed in Escherichia coli BLR(DE3) assessed as reduction in NADPH level using L-serine, THF and NADP+ incubated for 5 mins by SHMT2-MTHFD coupled reaction based fluorescence assay. The note with it: read-out: IC50.
For the compound `COc1cc(OC)c(NC(=O)N2CCC3(CC2)Nc2cc(F)ccc2-n2cccc23)cc1Cl`, the IC50 was determined as 4.17 µM.
In the case of `Cc1c(C(=O)NCc2ccco2)oc2c1-c1[nH]ncc1CC2`, the IC50 was 6.92 µM.
With `O=c1c(Nc2cccc3c2CCCC3)c(-c2ccc(Cl)cc2)c1=O`, the IC50 turned out to be 5.25 µM.
Still for that read-out and setting: the result for `CCCN1CCN(CCCNC(=O)c2oc3c(c2C)-c2[nH]ncc2CC3)CC1` reads 5.13 µM.
For `COc1ccc(NC(=O)n2ncc3cc(Cl)ccc32)cc1OC`, the IC50 was 9.77 µM.
The same measure, in the same setting: the result for `COc1ccc(OC)c(NS(=O)(=O)c2ccc3c(c2)S(=O)(=O)NC=N3)c1` reads 4.07 µM.
The same measure, in the same setting: the result for `CC(C)Cn1cc(NC(=O)NCC2CCN(CCc3cccs3)CC2)c2ccccc2c1=O` reads 3.24 µM; that for `CCc1nnc2c3ccccc3nc(Nc3ccc(OC)c(OC)c3)n12`, 12.3 µM; that for `CC(C)Cn1cc(NC(=O)N(Cc2ccco2)CC2CCCO2)c2ccccc2c1=O` (stereo unspecified), 3.89 µM.
`COc1cc(OC)c(NC(=O)N2CCN3CCCCC3C2)cc1Cl` (stereo unspecified): the IC50 worked out at 2.69 µM.
As for `CCOC(=O)C1CCCN(c2cc(C(=O)O)c3cc(N)ccc3n2)C1` (stereo unspecified), the IC50 is 5.5 µM.
In the case of `COc1ccc(Cl)cc1NC(=O)N1CC2CCCN2c2ccccc21` (stereo unspecified), the IC50 is 2 µM.
For `CCOc1ccc(Nc2ncnc3sc(C(=O)O)c(C)c23)cc1`, the IC50 came to 9.33 µM.
Regarding `Cc1cc(=O)c2c(=O)n(-c3nc4ccccc4s3)[nH]c2[nH]1`, the IC50 is 1.62 µM.
On to `CCCCN1CCS(=O)(=O)c2c(Cl)c(N3CCOCC3)nc(Oc3ccc(F)cc3)c21`, for which the IC50 was determined as 4.57 µM.
In the case of `COc1ccc(NC(=O)N2CCN3CCCCC3C2)cc1OC` (stereo unspecified), the IC50 is 3.39 µM.
In the case of `Cc1cc(CNC(=O)Nc2ccc3c(c2)OCCO3)c(C)n1-c1ccc(Cl)cc1`, the IC50 was 8.51 µM.
In the case of `COc1ccc(OC)c(NC2c3ncccc3C(=O)N2c2ccccc2)c1` (stereo unspecified), the IC50 amounted to 15.5 µM.
Still for that read-out and setting: as for `COc1ccc(OC)c(NC(=O)CSc2nc3ncccc3o2)c1`, the figure is 2.14 µM; as for `Cn1cnc2cc(NCc3ccco3)ccc21`, 2.04 µM; as for `CCOC(=O)c1c(C)oc2c1c1c(c3ccccc32)OCN(CCCC(=O)O)C1`, 1.35 µM.
`CC(C)Cn1cc(NC(=O)NC2CCCCC2)c2ccccc2c1=O`: the IC50 is 1.74 µM.
The same measure, in the same setting: as for `CC(C)Cn1cc(NC(=O)Nc2ccccc2)c2ccccc2c1=O`, the figure is 2.4 µM; as for `CCC(C)NC(=O)Nc1cn(CC(C)C)c(=O)c2ccccc12` (stereo unspecified), 2.34 µM; as for `Cn1cc(NC(=O)NCCN2CCOCC2)c2ccccc2c1=O`, 6.76 µM.
On to `CC(=O)Nc1ccc2nc(SCc3cc(=O)n4nc(C)sc4n3)sc2c1`, for which the IC50 stood at 3.09 µM.
On the same count and under the same terms, the result for `Cc1ccc2oc(SCC(=O)Nc3ccc(S(=O)(=O)N4CCCC4)cc3)nc2n1` reads 11.8 µM; that for `CC(C)Cn1cc(NC(=O)NC(c2cccs2)C(C)C)c2ccccc2c1=O` (stereo unspecified), 4.07 µM.
Still for that read-out and setting: the result for `COc1cc(OC)c(N(C)C(=O)Nc2cn(C)c(=O)c3ccccc23)cc1Cl` reads 3.72 µM; that for `O=C(Nc1ccc2c(c1)OCCO2)N1Cc2ccccc2Oc2ncccc21`, 3.09 µM.
Take `Cc1c(C(=O)NCc2cccs2)oc2c1-c1[nH]ncc1CC2`: the IC50 worked out at 7.94 µM.
On to `CCC1c2ccc(C)n2CCN1C(=O)Nc1cc(OC)cc(OC)c1` (stereo unspecified), for which the IC50 worked out at 7.94 µM.
Consider `CC(C)Cn1cc(NC(=O)Nc2ccc(N3CCC(C)CC3)cc2)c2ccccc2c1=O`, for which the IC50 was determined as 8.91 µM.
`Cn1c(=O)oc2cc(S(=O)(=O)N3CCC4(CC3)Nc3cc(F)ccc3-n3cccc34)ccc21`: the IC50 came to 8.51 µM.
The same measure, in the same setting: the result for `COc1ccc(OC)c(CNC(=O)Nc2cn(C)c(=O)c3ccccc23)c1` reads 2.57 µM.
For `CN1CCc2nc3sc(C(=O)c4ccc(Cl)cc4)c(N)c3cc2C1`, the IC50 turned out to be 3.89 µM.
On to `Cc1c(C(=O)N2CCOCC2)oc2c1-c1nn(CC(=O)NC3CCCC(C)C3C)cc1CC2` (stereo unspecified), for which the IC50 worked out at 2.69 µM.
On the same count and under the same terms, the result for `O=C(Nc1cc(F)c2nc(N3CCCC3)ccc2c1)C1CCCCC1` reads 2.57 µM.
For `CC(C)Cn1cc(NC(=O)Nc2ccccn2)c2ccccc2c1=O`, the IC50 turned out to be 3.31 µM.
On to `CCOc1ccc(NS(=O)(=O)c2ccc3c4c2CC(=O)N4CC(C)S3)cc1` (stereo unspecified), for which the IC50 was 5.01 µM.
On the same count and under the same terms, as for `CNC(=O)c1oc2c(c1C)C1N=C(C)SC1CC2` (stereo unspecified), the figure is 5.13 µM; as for `CCOC(=O)c1nc(Nc2cc(OC)ccc2OC)c2ccccc2n1`, 14.1 µM.
The same measure, in the same setting: as for `O=C(CSc1nc2ncccc2o1)Nc1ccc(Br)cc1F`, the figure is 1.82 µM.
On to `COc1ccc(NC2c3ncccc3C(=O)N2Cc2ccco2)cc1OC` (stereo unspecified), for which the IC50 stood at 12.6 µM.
As to `C=CCNc1nc(Nc2ccc(OC)cc2)c2cnn(C)c2n1`, the IC50 was determined as 1.62 µM.
Same read-out and setting: the result for `CCCCCC(C)n1nc(O)c2c(C)cc(=O)[nH]c21` (stereo unspecified) reads 7.08 µM.
With `COc1ccc(Nc2nc(Nc3ccccc3)c3cnn(C)c3n2)c(OC)c1`, the IC50 came out at 3.31 µM.
Regarding `Cc1cc(C)n(-c2nnc(Nc3ccc4c(c3)OCCO4)c3ccccc23)n1`, the IC50 was 2.19 µM.
Regarding `CC(C)Cn1cc(NC(=O)N2CCCc3ccccc32)c2ccccc2c1=O`, the IC50 stood at 3.02 µM.
On to `CC(C)Cn1cc(NC(=O)Nc2ccc(F)cc2Cl)c2ccccc2c1=O`, for which the IC50 turned out to be 1.86 µM.
Regarding `CC(C)Cn1cc(NC(=O)N2CCN(C(=O)c3ccco3)CC2)c2ccccc2c1=O`, the IC50 was found to be 4.57 µM.
Take `COc1cc(NC(=O)n2ncc3cc(Cl)ccc32)cc(OC)c1`: the IC50 is 11.8 µM.
With `O=C(Nc1cc(F)c2nc(N3CCOCC3)ccc2c1)C1CC1`, the IC50 is 1.17 µM.
In the case of `O=C(Nc1cc(F)c2nc(N3CCOCC3)ccc2c1)C1CCC1`, the IC50 was 1.55 µM.
Consider `O=C(Nc1ccc2c(c1)OCCO2)N1CCSc2ncccc21`, for which the IC50 turned out to be 2.75 µM.
On the same count and under the same terms, as for `Cc1cccc(NC(=O)Nc2cn(CC(C)C)c(=O)c3ccccc23)n1`, the figure is 2.57 µM; as for `CC1CC(C)CN(CCCNC(=O)Nc2cn(C)c(=O)c3ccccc23)C1` (stereo unspecified), 10.7 µM; as for `COc1cc(NC(=O)C2CCC2)cc2sc(NS(=O)(=O)c3ccccc3)nc12`, 8.13 µM.
For `COC(=O)c1sc(=S)n(-c2ccc3c(c2)OCO3)c1N`, the IC50 is 2.95 µM.
Take `Cc1c(C(=O)NCCCN2CCOCC2)oc2c1-c1[nH]ncc1CC2`: the IC50 was determined as 4.17 µM.
Turning to `Cc1nn(C)c(C)c1CNC(=O)Nc1ccc2c(c1)OCCO2`, the IC50 was determined as 4.07 µM.
With `CNc1nc2[nH]c(=O)cc(O)c2s1`, the IC50 is 2.51 µM.
Consider `Cc1csc(NC(=O)Nc2cn(CC(C)C)c(=O)c3ccccc23)n1`, for which the IC50 came out at 3.47 µM.
Take `COc1cc(C2CC(=O)N3CN(C4CCCCC4)CSC3=C2C#N)ccc1O` (stereo unspecified): the IC50 was determined as 4.37 µM.
Regarding `COc1ccc(OC)c(NC(=O)N2CCN(S(=O)(=O)c3ccc4c(ccn4C)c3)CC2)c1`, the IC50 came to 3.24 µM.
Still for that read-out and setting: the result for `O=C1CN(C(=O)COc2cccc3ccccc23)c2ccccc2N1` reads 2.34 µM.
On to `Cn1cc(NC(=O)NCc2ccccn2)c2ccccc2c1=O`, for which the IC50 was found to be 4.79 µM.
The same measure, in the same setting: the result for `Cc1cc(NC(=O)N2CCSc3ncccc32)ccc1Br` reads 4.37 µM.
On the same count and under the same terms, the result for `O=C1CCCC2=C1C(c1cccs1)N(S(=O)(=O)c1ccc(F)cc1)c1ccccc1N2` (stereo unspecified) reads 4.57 µM; that for `COc1cc(NC(=O)C2=Cc3sc(C)c(C)c3CS2)cc(OC)c1`, 6.76 µM; that for `C=CCOc1ccc(C2CC(=O)Nc3c(-c4ccccc4OC)csc32)cc1` (stereo unspecified), 1.02 µM.
As for `COc1ccc2nc(NC(=O)Nc3cn(CC(C)C)c(=O)c4ccccc34)sc2c1`, the IC50 came to 2.04 µM.
Take `CCOC(=O)C1CCN(c2cc(C(=O)O)c3cc(N)ccc3n2)CC1`: the IC50 worked out at 6.46 µM.
Take `COc1ccc(Nc2nnc(Cc3ccncc3)c3ccccc23)c(OC)c1`: the IC50 stood at 3.89 µM.
With `CC(C)Cn1cc(NC(=O)NCCN2CCC(C)CC2)c2ccccc2c1=O`, the IC50 stood at 3.8 µM.
For `Cn1nc(C(=O)N2CC=C(c3ccccc3)CC2)c2c1-c1ccsc1CC2`, the IC50 turned out to be 0.85 µM.
Consider `CN1CCN(CCCNC(=O)c2ccc(N3CCSc4ncccc43)s2)CC1`, for which the IC50 was determined as 3.8 µM.
As to `CC(C)CCNC(=O)CSc1nc2ncccc2o1`, the IC50 is 2.51 µM.
With `COc1cccc(C2CC(=O)N3CN(c4ccc(OC)cc4OC)CSC3=C2C#N)c1` (stereo unspecified), the IC50 turned out to be 4.37 µM.
As to `COc1cc(NC2=C(c3ccccc3)C(=O)c3ccccc32)cc(OC)c1`, the IC50 was determined as 11.5 µM.
For the compound `COC(=O)Cn1cc2c(n1)-c1c(oc(C(=O)N3CCCC3)c1C)CC2`, the IC50 stood at 6.03 µM.
With `COc1cc(OC)c(NC(=O)NCCc2csc(C)c2C)cc1Cl`, the IC50 was determined as 4.57 µM.
Consider `CC(=O)Oc1cc2c(C(=O)N3CCN(c4ccccc4)CC3)c(C)oc2c2ccccc12`, for which the IC50 stood at 2.88 µM.
`COc1ccc(NS(=O)(=O)c2cc(Br)cnc2N)cc1OC`: the IC50 came out at 7.76 µM.
Same read-out and setting: as for `COc1ccc(Cl)cc1N(C)C(=O)Nc1cn(C)c(=O)c2ccccc12`, the figure is 6.92 µM.
On the same count and under the same terms, as for `COc1ccc(Nc2nc(NC3CCCC3)nc3c2cnn3C)cc1`, the figure is 2.69 µM.
The same measure, in the same setting: as for `CC(C)Cn1cc(NC(=O)Nc2cc(F)ccc2F)c2ccccc2c1=O`, the figure is 4.27 µM.
On to `CC(C)Cn1cc(NC(=O)NCCCN2CCCC(C)C2)c2ccccc2c1=O` (stereo unspecified), for which the IC50 worked out at 2.45 µM.
Consider `COc1cccc(NS(=O)(=O)c2ccc3c4c2CC(=O)N4CC(C)S3)c1` (stereo unspecified), for which the IC50 came to 3.63 µM.
As for `CN(C)c1ccc(NC(=O)C2CC=CCC2C(=O)O)cc1` (stereo unspecified), the IC50 was 4.79 µM.

The experiment is the same for the next values; noted with them: read-out: pIC50 (converted).
On to `O=C(O)CCc1nc(-c2ccccc2)c(-c2ccccc2)o1` [OXAPROZIN], for which the IC50 is 1.95 µM.
